Source: PubChem BioAssay AID2060610 (Molecular Pharmacology Branch, DTP, NCI, 2025)
“And” between values parts separate entries of the source, which are not always exact repeats. Equal values may be shown once.

System: 616215-338-R-J1-PDC complex spheroids, viability % test/control
Experiment: Anticancer human tumor 616215-338-R-J1-PDC patient-derived colon adenocarcinoma cell line growth inhibition [CLK]
Details: for viability, T/C: stronger effect = lower value; active = viability on the fitted dose curve at most 10% of control; inactive = the rest
Summary of the method: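 Patient-derived tumor cells grown as complex spheroids with HUVEC endothelial cells and mesenchymal stem cells, treated with drug combinations. Concentrations descend in half-log steps from near clinical Cmax, or from 10 microM if Cmax unknown.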

[1] = curve of first compound, second compound 0.0316 µM
[2] = curve of first compound, second compound 0.1 µM
[3] = curve of first compound, second compound 0.316 µM
[4] = curve of first compound, second compound 1 µM
[5] = curve of first compound, second compound 3.16 µM
[6] = curve of first compound, second compound 10 µM
[7] = second compound 0.0316 µM, first compound 0.0316 µM
[8] = second compound 0.0316 µM, first compound 0.1 µM
[9] = second compound 0.0316 µM, first compound 0.316 µM
[10] = second compound 0.0316 µM, first compound 1 µM
[11] = second compound 0.1 µM, first compound 0.0316 µM
[12] = second compound 0.1 µM, first compound 0.1 µM
[13] = second compound 0.1 µM, first compound 0.316 µM
[14] = second compound 0.1 µM, first compound 1 µM
[15] = second compound 0.316 µM, first compound 0.0316 µM
[16] = second compound 0.316 µM, first compound 0.1 µM
[17] = second compound 0.316 µM, first compound 0.316 µM
[18] = second compound 0.316 µM, first compound 1 µM
[19] = second compound 1 µM, first compound 0.0316 µM
[20] = second compound 1 µM, first compound 0.1 µM
[21] = second compound 1 µM, first compound 0.316 µM
[22] = second compound 1 µM, first compound 1 µM
[23] = second compound 3.16 µM, first compound 0.0316 µM
[24] = second compound 3.16 µM, first compound 0.1 µM
[25] = second compound 3.16 µM, first compound 0.316 µM
[26] = second compound 3.16 µM, first compound 1 µM
[27] = second compound 10 µM, first compound 0.0316 µM
[28] = second compound 10 µM, first compound 0.1 µM
[29] = second compound 10 µM, first compound 0.316 µM
[30] = second compound 10 µM, first compound 1 µM
[31] = second compound 0.0316 µM, first compound 3.16 µM
[32] = second compound 0.0316 µM, first compound 10 µM
[33] = second compound 0.1 µM, first compound 3.16 µM
[34] = second compound 0.1 µM, first compound 10 µM
[35] = second compound 0.316 µM, first compound 3.16 µM
[36] = second compound 0.316 µM, first compound 10 µM
[37] = second compound 1 µM, first compound 3.16 µM
[38] = second compound 1 µM, first compound 10 µM
[39] = second compound 3.16 µM, first compound 3.16 µM
[40] = second compound 3.16 µM, first compound 10 µM
[41] = second compound 10 µM, first compound 3.16 µM
[42] = second compound 10 µM, first compound 10 µM
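Note: spheroids exposed to agents for 7 days.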
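Throughout, for viability, T/C: 100% = DMSO vehicle wells.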

COc1c(OCCCN2CCOCC2)ccc2c3n(c(=NC(=O)c4cnc(N)nc4)nc12)CCN3 + CN1CCN(c2cc(C(=O)Nc3cc4cc(-c5cnn(C)c5)ccc4cn3)ccn2)CC1
36.2 nM: IC50 [2]
86.6 nM: IC50 [1]
active: viability, T/C [16] 6.03% | viability, T/C [17] 4.47% | viability, T/C [18] 4.01% | viability, T/C (second compound 1 µM, first compound 0.00316 µM) 0.24% | viability, T/C (second compound 1 µM, first compound 0.01 µM) 1.7% | viability, T/C [19] 0.49% | viability, T/C [20] 0.1% | viability, T/C [21] 0.08% | viability, T/C [22] 1.24% | viability, T/C (second compound 3.16 µM, first compound 0.00316 µM) 0.1% | viability, T/C (second compound 3.16 µM, first compound 0.01 µM) 2.88% | viability, T/C [23] 0.11% | viability, T/C [24] 0.1% | viability, T/C [25] 1.07% | viability, T/C [26] 0.15% | viability, T/C (second compound 10 µM, first compound 0.00316 µM) 0.12% | viability, T/C (second compound 10 µM, first compound 0.01 µM) 0.15% | viability, T/C [27] 0.98% | viability, T/C [28] 0.33% | viability, T/C [29] 0.17% | viability, T/C [30] 1.41%
< 3.16 nM: IC50 [3] | IC50 [4] | IC50 [5] | IC50 [6]
inactive: viability, T/C (second compound 0.0316 µM, first compound 0.00316 µM) 105% | viability, T/C (second compound 0.0316 µM, first compound 0.01 µM) 115% | viability, T/C [7] 89.8% | viability, T/C [8] 44% | viability, T/C [9] 30.8% | viability, T/C [10] 21.6% | viability, T/C (second compound 0.1 µM, first compound 0.00316 µM) 110% | viability, T/C (second compound 0.1 µM, first compound 0.01 µM) 94.4% | viability, T/C [11] 50.1% | viability, T/C [12] 29.1% | viability, T/C [13] 19.1% | viability, T/C [14] 12.3% | viability, T/C (second compound 0.316 µM, first compound 0.00316 µM) 26.4% | viability, T/C (second compound 0.316 µM, first compound 0.01 µM) 25.1% | viability, T/C [15] 11.8%

Cn1ncnc1[C@H]1c2n[nH]c(=O)c3cc(F)cc(c23)N[C@@H]1c1ccc(F)cc1
> 100 nM: IC50 (curve of compound)
inactive: viability, T/C (compound 0.000316 µM) 92% and 98.4% | viability, T/C (compound 0.001 µM) 105% and 97.6% | viability, T/C (compound 0.00316 µM) 102% and 94.1% | viability, T/C (compound 0.01 µM) 95% and 95.3% | viability, T/C (compound 0.0316 µM) 116% and 114% | viability, T/C (compound 0.1 µM) 106% and 116%

O=C(c1cc(Cc2n[nH]c(=O)c3ccccc23)ccc1F)N1CCN(C(=O)C2CC2)CC1 + CNC(=O)c1ccc(Nc2nc(OC3CCCC3)c3c(-c4ccc5nc(C)oc5c4)c[nH]c3n2)c(OC)c1
inactive: viability, T/C [7] 107% | viability, T/C [8] 98.9% | viability, T/C [9] 92.3% | viability, T/C [10] 99.7% | viability, T/C [31] 96.1% | viability, T/C [32] 110% | viability, T/C [11] 59% | viability, T/C [12] 63.5% | viability, T/C [13] 56% | viability, T/C [14] 57.2% | viability, T/C [33] 51.2% | viability, T/C [34] 63.9% | viability, T/C [15] 42.1% | viability, T/C [16] 61.1% | viability, T/C [17] 49.5% | viability, T/C [18] 45.2% | viability, T/C [35] 50% | viability, T/C [36] 56.6% | viability, T/C [19] 45.1% | viability, T/C [20] 51.3% | viability, T/C [21] 42.4% | viability, T/C [22] 49.3% | viability, T/C [37] 52.6% | viability, T/C [38] 49.8% | viability, T/C [23] 45.5% | viability, T/C [24] 38.5% | viability, T/C [25] 42.4% | viability, T/C [26] 42.2% | viability, T/C [39] 55.4% | viability, T/C [40] 41.6% | viability, T/C [27] 39.1% | viability, T/C [28] 41.8% | viability, T/C [29] 42.8% | viability, T/C [30] 47.8% | viability, T/C [41] 40.8% | viability, T/C [42] 39.8%
< 31.6 nM: IC50 [3] | IC50 [4] | IC50 [5] | IC50 [6]
> 10000 nM: IC50 [1] | IC50 [2]

COc1cccc2c1C(=O)c1c(O)c3c(c(O)c1C2=O)CC(O)(C(=O)CO)CC3OC1CC(N)C(O)C(C)O1 (centres undefined) + CNC(=O)c1ccc(Nc2nc(OC3CCCC3)c3c(-c4ccc5nc(C)oc5c4)c[nH]c3n2)c(OC)c1
active: viability, T/C [32] 0.82% | viability, T/C [33] 0.57% | viability, T/C [34] 0.99% | viability, T/C [35] 0.32% | viability, T/C [36] 0.17% | viability, T/C [37] 0.2% | viability, T/C [38] 0.17% | viability, T/C [39] 0.16% | viability, T/C [40] 2.18% | viability, T/C [41] 0.24% | viability, T/C [42] 1.24%
548 nM: IC50 [5]
328 nM: IC50 [1]
< 31.6 nM: IC50 [3]
533 nM: IC50 [6]
494 nM: IC50 [4]
inactive: viability, T/C [7] 111% | viability, T/C [8] 72.6% | viability, T/C [9] 54.1% | viability, T/C [10] 34.5% | viability, T/C [31] 1.22% | viability, T/C [11] 53.8% | viability, T/C [12] 57.7% | viability, T/C [13] 42.7% | viability, T/C [14] 35.9% | viability, T/C [15] 55.7% | viability, T/C [16] 47.1% | viability, T/C [17] 46.8% | viability, T/C [18] 42.1% | viability, T/C [19] 49.7% | viability, T/C [20] 61.3% | viability, T/C [21] 75.6% | viability, T/C [22] 30.7% | viability, T/C [23] 61.8% | viability, T/C [24] 66.6% | viability, T/C [25] 81.3% | viability, T/C [26] 28.3% | viability, T/C [27] 58.2% | viability, T/C [28] 56% | viability, T/C [29] 79.7% | viability, T/C [30] 32.4%
340 nM: IC50 [2]

CC(CO)NC(=O)c1cc(-c2ccc(Cl)cc2)nn(-c2cnn(C)c2)c1=O (centres undefined)
inactive: viability, T/C (compound 0.0316 µM) 90.7% and 94.5% | viability, T/C (compound 0.1 µM) 95.2% and 99.6% | viability, T/C (compound 0.316 µM) 101% and 96% | viability, T/C (compound 1 µM) 102% and 99.1% | viability, T/C (compound 3.16 µM) 110% and 95% | viability, T/C (compound 10 µM) 103% and 106%
> 10000 nM: IC50 (curve of compound)

CC(Nc1ccc2c(c1)OCCn1cc(N3C(=O)OCC3C(F)F)nc1-2)C(N)=O (centres undefined)
> 10000 nM: IC50 (curve of compound)
inactive: viability, T/C (compound 0.0316 µM) 89.4% and 107% | viability, T/C (compound 0.1 µM) 99.5% and 103% | viability, T/C (compound 0.316 µM) 105% and 108% | viability, T/C (compound 1 µM) 101% and 100% | viability, T/C (compound 3.16 µM) 99.9% and 110% | viability, T/C (compound 10 µM) 90.6% and 100%

CC(Nc1ccc2c(c1)OCCn1cc(N3C(=O)OCC3C(F)F)nc1-2)C(N)=O (centres undefined) + CNC(=O)c1ccc(Nc2nc(OC3CCCC3)c3c(-c4ccc5nc(C)oc5c4)c[nH]c3n2)c(OC)c1
< 31.6 nM: IC50 [3] | IC50 [4] | IC50 [5] | IC50 [6]
> 10000 nM: IC50 [1]
inactive: viability, T/C [7] 95.8% | viability, T/C [8] 106% | viability, T/C [9] 100% | viability, T/C [10] 104% | viability, T/C [31] 104% | viability, T/C [32] 90.3% | viability, T/C [11] 52.5% | viability, T/C [12] 65.9% | viability, T/C [13] 51.7% | viability, T/C [14] 56.2% | viability, T/C [33] 51.5% | viability, T/C [34] 42.1% | viability, T/C [15] 38.8% | viability, T/C [16] 34.2% | viability, T/C [17] 37.6% | viability, T/C [18] 25.4% | viability, T/C [35] 26.1% | viability, T/C [36] 21.9% | viability, T/C [19] 33% | viability, T/C [20] 32.5% | viability, T/C [21] 26.4% | viability, T/C [22] 23.3% | viability, T/C [37] 16.4% | viability, T/C [38] 14.8% | viability, T/C [23] 35.2% | viability, T/C [24] 25.9% | viability, T/C [25] 21.7% | viability, T/C [26] 17.4% | viability, T/C [39] 17% | viability, T/C [40] 12.4% | viability, T/C [27] 28% | viability, T/C [28] 28.8% | viability, T/C [29] 21.9% | viability, T/C [30] 17.7% | viability, T/C [41] 17% | viability, T/C [42] 12.8%
3810 nM: IC50 [2]
